The text below walks through data of patent publication US10485803B2, “Pyrimidine compounds as JAK kinase inhibitors” (THERAVANCE BIOPHARMA R&D IP, LLC, priority 2016, dated 2019).

One series addresses JAK1 (Homo sapiens (Human), UniProt P23458). The series is described as follows: LanthaScreen JAK biochemical assay, JAK1. For orientation: TR-FRET usually uses a lanthanide donor and a delayed reading to cut background.
The subject of series [1] is IL-13 induced STAT6 phosphorylation in HT-29 human colorectal adenocarcinoma cells. The series is described as follows: Cellular JAK potency assay: inhibition of IL-13. The class given is cell-based. Particulars: HT-29 cells. The protocol: The potency of test compounds for inhibition of the JAK-dependent cytokine interleuken-13 (IL-13) was assessed by measuring IL-13 (IL-13, R&D Systems) induced STAT6 phosphorylation in HT-29 human colorectal adenocarcinoma cells (ATCC).
The anti-STAT6 antibody (Cell Signaling Technologies) was conjugated to AlphaScreen acceptor beads (Perkin Elmer), while the anti-pSTAT6 (pTyr641) antibody (Cell Signaling Technologies) was biotinylated using EZ-Link Sulfo-NHS-Biotin (Thermo Scientific).
HT-29 cells were grown at 37° C. in a 5% CO2 humidified incubator in McCoy's 5a Modified medium (ATCC) supplemented with 10% FBS (Hyclone), 100 U/mL penicillin, 100 μg/mL streptomycin (Life Technologies), and 2 mM GlutaMAX (Life Technologies). On day 1 of the assay, cells were seeded at a 7,500 cells/well density in white poly-D-lysine-coated 384-well plates (Corning) with 25 μL medium, and were allowed to adhere overnight in the incubator. On day 2 of the assay, the medium was removed and replaced with 12 μL of assay buffer (Hank's Balanced Salt Solution/HBSS, 25 mM HEPES, and 1 mg/ml bovine serum albumin/BSA) containing dose-responses of test compounds. Compounds were serially diluted in DMSO and then diluted another 1000-fold in media to bring the final DMSO concentration to 0.1%. Cells were incubated with test compounds at 37° C. for 1 h, and followed by the addition of 12 μl of pre-warmed IL-13 (12 ng/ml in assay buffer) for stimulation. After incubating at 37° C. for 30 min, the assay buffer (containing compound and IL-13) was removed, and 10 μl of cell lysis buffer (25 mM HEPES, 0.1% SDS, 1% NP-40, 5 mM MgCl2, 1.3 mM EDTA, 1 mM EGTA, and supplement with Complete Ultra mini protease inhibitors and PhosSTOP from Roche Diagnostics). The plates were shaken at ambient temperature for 30 min before the addition of detection reagents. A mixture of biotin-anti-pSTAT6 and anti-STAT6 conjugated acceptor beads was added first and incubated at ambient temperature for 2 h, followed by the addition of streptavidin conjugated donor beads (Perkin Elmer). After a minimum of 2 h incubation, the assay plates were read on the EnVision plate reader.
Results were expressed as the negative logarithm of the IC50 value, pIC50.

A further series has as its target JAK2 (Homo sapiens (Human), UniProt O60674). The series is described as follows: LanthaScreen JAK biochemical assay, JAK2.
Series [2] in a line: Determination of absorption in cannulated rats. The class given is in vivo, Sprague Dawley rats. Particulars: rat, oral vs IV dose, portal vein. The protocol:
Oral bioavailability (F %), fraction absorbed (Fa%) and fraction escaping hepatic clearance (Fh%) were determined in Sprague Dawley rats from the following two studies:
(1) Pharmacokinetics in rats following an IV dose of test compound: Following IV dosing, plasma samples were typically collected from 0-6 hr. Drug levels were determined using an LC-MS-MS method. The resulting drug levels were used to compute the IV pharmacokinetic parameters: AUC IV and Dose IV.
(2) Rats that have been cannulated in their portal vein (PV) and also in their jugular vein (JV) were dosed orally with test compound. Following oral dosing, plasma samples were typically collected from 0-6 hr from both the portal vein and the jugular vein. Drug levels were determined using an LC-MS-MS method. The resulting drug levels were used to compute the following pharmacokinetic parameters: AUC PO PV, AUC PO JV, and Dose PO.
Using data derived from the above studies, the oral bioavailability F %, and the quantities Fa% and Fh% were calculated from the following formulas: F%=(AUC PO JV/AUC IV)*(Dose IV/Dose PO)*100 Fa%=(AUC PO PV/AUC IV)*(Dose IV/Dose PO)*100 Fh%=AUC PO JV/AUC PO PV • where: • AUC PO JV=Area under the curve following oral dose and plasma collected from the jugular vein • AUC PO PV=Area under the curve following oral dose and plasma collected from the portal vein • AUC IV=Area under the curve following an intravenous dose • Dose IV=Intravenous Dose in mg/kg • Dose PO=Oral Dose in mg/kg

A short description of series [3]: Dynamic moisture sorption assessment. The series is classed as physicochemical. To be noted: for hygroscopicity: 5% to 90% RH, two cycles of sorption and desorption; for weight gain in the humidity range of 5% to 90% relative humidity: 25° C. / room temperature. The protocol:
Dynamic moisture sorption (DMS) measurement was performed using a VTI atmospheric microbalance, SGA-100 system (VTI Corp., Hialeah, Fla. 33016). A weighed sample was used and the humidity was lowest possible value (close to 0% RH) at the start of the analysis. The DMS analysis consisted of an initial drying step (0% RH) for 120 minutes, followed by two cycles of sorption and desorption with a scan rate of 5% RH/step over the humidity range of 5% RH to 90% RH. The DMS run was performed isothermally at 25° C.

Sequence of JAK2 (O60674 whole entry): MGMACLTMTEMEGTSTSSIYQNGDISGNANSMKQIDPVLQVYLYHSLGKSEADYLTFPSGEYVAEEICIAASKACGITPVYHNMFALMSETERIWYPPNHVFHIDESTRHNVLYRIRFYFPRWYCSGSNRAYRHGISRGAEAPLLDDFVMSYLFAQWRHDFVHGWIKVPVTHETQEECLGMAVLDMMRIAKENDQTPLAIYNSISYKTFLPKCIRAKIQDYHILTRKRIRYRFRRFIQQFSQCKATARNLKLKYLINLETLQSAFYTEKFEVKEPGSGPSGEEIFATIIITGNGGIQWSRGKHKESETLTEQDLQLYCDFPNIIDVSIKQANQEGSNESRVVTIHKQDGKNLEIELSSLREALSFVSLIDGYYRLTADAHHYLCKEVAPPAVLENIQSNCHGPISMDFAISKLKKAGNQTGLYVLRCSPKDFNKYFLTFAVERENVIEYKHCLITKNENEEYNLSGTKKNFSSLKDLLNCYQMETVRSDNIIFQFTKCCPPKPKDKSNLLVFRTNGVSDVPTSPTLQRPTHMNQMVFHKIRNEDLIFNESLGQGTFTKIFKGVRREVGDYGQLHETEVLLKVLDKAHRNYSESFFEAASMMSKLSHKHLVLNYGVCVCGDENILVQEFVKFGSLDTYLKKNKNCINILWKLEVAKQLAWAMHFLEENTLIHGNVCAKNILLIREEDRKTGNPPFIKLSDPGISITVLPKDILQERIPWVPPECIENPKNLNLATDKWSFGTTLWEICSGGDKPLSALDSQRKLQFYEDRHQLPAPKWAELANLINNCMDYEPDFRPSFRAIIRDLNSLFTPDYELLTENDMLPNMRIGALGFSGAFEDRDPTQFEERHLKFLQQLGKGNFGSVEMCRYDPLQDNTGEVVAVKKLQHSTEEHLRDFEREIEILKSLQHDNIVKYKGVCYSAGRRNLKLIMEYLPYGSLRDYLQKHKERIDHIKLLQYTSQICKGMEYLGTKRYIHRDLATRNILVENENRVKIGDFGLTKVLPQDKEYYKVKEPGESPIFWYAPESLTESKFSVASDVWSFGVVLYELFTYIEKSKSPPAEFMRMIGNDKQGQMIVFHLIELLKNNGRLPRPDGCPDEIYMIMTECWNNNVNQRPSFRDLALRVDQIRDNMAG
Sequence of JAK1 (P23458 whole entry): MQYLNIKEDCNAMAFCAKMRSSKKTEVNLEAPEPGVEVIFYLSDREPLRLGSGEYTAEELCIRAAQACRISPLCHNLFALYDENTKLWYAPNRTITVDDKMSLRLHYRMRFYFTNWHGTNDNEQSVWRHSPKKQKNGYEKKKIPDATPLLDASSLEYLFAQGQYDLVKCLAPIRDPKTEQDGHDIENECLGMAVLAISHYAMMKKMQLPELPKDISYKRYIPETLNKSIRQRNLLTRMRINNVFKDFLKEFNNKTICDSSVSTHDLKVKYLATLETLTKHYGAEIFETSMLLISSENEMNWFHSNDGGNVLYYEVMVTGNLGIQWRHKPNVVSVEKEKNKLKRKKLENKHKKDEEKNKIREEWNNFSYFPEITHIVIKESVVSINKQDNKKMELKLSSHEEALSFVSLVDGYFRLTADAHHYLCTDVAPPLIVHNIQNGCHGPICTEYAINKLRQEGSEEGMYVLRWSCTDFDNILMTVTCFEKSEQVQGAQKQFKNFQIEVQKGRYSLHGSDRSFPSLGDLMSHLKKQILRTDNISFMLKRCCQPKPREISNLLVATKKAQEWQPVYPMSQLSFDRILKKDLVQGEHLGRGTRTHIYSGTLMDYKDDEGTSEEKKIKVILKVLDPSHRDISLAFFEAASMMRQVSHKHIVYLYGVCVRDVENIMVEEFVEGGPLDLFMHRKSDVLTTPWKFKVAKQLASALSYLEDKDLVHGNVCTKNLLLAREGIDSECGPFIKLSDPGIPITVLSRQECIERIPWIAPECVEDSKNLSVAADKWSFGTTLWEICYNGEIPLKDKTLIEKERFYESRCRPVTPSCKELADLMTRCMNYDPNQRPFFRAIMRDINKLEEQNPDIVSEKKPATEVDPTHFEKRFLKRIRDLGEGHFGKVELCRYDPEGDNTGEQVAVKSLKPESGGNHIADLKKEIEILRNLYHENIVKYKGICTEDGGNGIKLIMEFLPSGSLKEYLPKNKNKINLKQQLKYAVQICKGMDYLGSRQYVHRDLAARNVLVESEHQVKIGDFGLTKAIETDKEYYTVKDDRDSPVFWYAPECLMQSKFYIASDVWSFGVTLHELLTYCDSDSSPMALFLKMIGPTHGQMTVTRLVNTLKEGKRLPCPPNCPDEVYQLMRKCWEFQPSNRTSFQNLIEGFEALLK
Method for JAK1: (§1) A panel of four LanthaScreen JAK biochemical assays (JAK1, 2, 3 and Tyk2) were carried in a common kinase reaction buffer (50 mM HEPES, pH 7.5, 0.01% Brij-35, 10 mM MgCl2, and 1 mM EGTA). Recombinant GST-tagged JAK enzymes and a GFP-tagged STAT1 peptide substrate were obtained from Life Technologies.
(§2) Serially diluted compounds were pre-incubated with each of the four JAK enzymes and the substrate in white 384-well microplates (Corning) at ambient temperature for 1 h. ATP was subsequently added to initiate the kinase reactions in 10 μl total volume, with 1% DMSO. […] The plates were allowed to incubate at ambient temperature for 1 h before being read on the EnVision reader (Perkin Elmer).
(§3) For dose-response analysis, percent inhibition data were plotted vs. compound concentrations, and IC50 values were determined from a 4-parameter robust fit model with the Prism software (GraphPad Software). Results were expressed as pIC50 (negative logarithm of IC50) and subsequently converted to pKi (negative logarithm of dissociation constant, Ki) using the Cheng-Prusoff equation.
Method for JAK2: as §1, §2, §3

For `COc1cc(Nc2cc(CO)[nH]n2)nc(N[C@@H]2C[C@H]3CCC[C@@H](C2)N3S(=O)(=O)N2CC(C#N)C2)n1` [Example 1-6, 1-(((1R,3s,5S)-3-((4-((5-(hydroxymethyl)-1H-pyrazol-3-yl)amino)-6-methoxypyrimidin-2-yl)amino)-9-azabicyclo[3.3.1]nonan-9-yl)sulfonyl)azetidine-3-carbonitrile], the “JAK 1 (pKi)” value on JAK1 is recorded as “A (A represents a pKi value ≥10 (Ki≤0.1 nM))”.
Take `COc1cc(Nc2cc(CO)[nH]n2)nc(N[C@@H]2C[C@H]3CCC[C@@H](C2)N3S(=O)(=O)c2ccccc2)n1` [Example 1-8, (3-((6-methoxy-2-(((1R,3s,5S)-9-(phenylsulfonyl)-9-azabicyclo[3.3.1]nonan-3-yl)amino)pyrimidin-4-yl)amino)-1H-pyrazol-5-yl)methanol]: in series [1], the “HT-29 (pIC50)” value is given as “A (A represents a pIC50 value ≥7.5 (IC50≤32 nM))”. The “JAK 1 (pKi)” value at JAK1 is given as “A (A represents a pKi value ≥10 (Ki≤0.1 nM))”.
As for `COc1cc(Nc2cc(CO)[nH]n2)nc(N(C)[C@@H]2C[C@H]3CCC[C@@H](C2)N3S(=O)(=O)N2CCCC2)n1` [Example 1-13, (3-((6-methoxy-2-(methyl((1R,3s,5S)-9-(pyrrolidin-1-ylsulfonyl)-9-azabicyclo[3.3.1]nonan-3-yl)amino)pyrimidin-4-yl)amino)-1H-pyrazol-5-yl)methanol], the “HT-29 (pIC50)” value in series [1] is “A (A represents a pIC50 value ≥7.5 (IC50≤32 nM))”. The “JAK 1 (pKi)” value at JAK1 is given as “A (A represents a pKi value ≥10 (Ki≤0.1 nM))”. Further, at JAK2, the “JAK 2 (pKi)” value is “A (A represents a pKi value ≥10 (Ki≤0.1 nM))”.
Turning to `COc1cc(Nc2cc(CO)[nH]n2)nc(N(C)[C@@H]2C[C@H]3CCC[C@@H](C2)N3S(=O)(=O)C2CC2)n1` [Example 1-14, (3-((2-(((1R,3s,5S)-9-(cyclopropylsulfonyl)-9-azabicyclo[3.3.1]nonan-3-yl)(methyl)amino)-6-methoxypyrimidin-4-yl)amino)-1H-pyrazol-5-yl)methanol], in series [1], the “HT-29 (pIC50)” value is “A (A represents a pIC50 value ≥7.5 (IC50≤32 nM))”. Further, at JAK2, the “JAK 2 (pKi)” value was “A (A represents a pKi value ≥10 (Ki≤0.1 nM))”.
For the compound `COc1cc(Nc2cc(CO)[nH]n2)nc(N(C)[C@@H]2C[C@H]3CCC[C@@H](C2)N3S(=O)(=O)c2cccnc2)n1` [Example 1-15, (3-((6-methoxy-2-(methyl((1R,3s,5S)-9-(pyridin-3-ylsulfonyl)-9-azabicyclo[3.3.1]nonan-3-yl)amino)pyrimidin-4-yl)amino)-1H-pyrazol-5-yl)methanol], at JAK2, the “JAK 2 (pKi)” value is on record as “A (A represents a pKi value ≥10 (Ki≤0.1 nM))”.
Take `COc1cc(Nc2cc(CO)[nH]n2)nc(N(C)[C@@H]2C[C@H]3CCC[C@@H](C2)N3S(=O)(=O)N2CCC2)n1` [Example 1-17, (3-((2-(((1R,3s,5S)-9-(azetidin-1-ylsulfonyl)-9-azabicyclo[3.3.1]nonan-3-yl)(methyl)amino)-6-methoxypyrimidin-4-yl)amino)-1H-pyrazol-5-yl)methanol]: in series [1], the “HT-29 (pIC50)” value is on record as “A (A represents a pIC50 value ≥7.5 (IC50≤32 nM))”. Besides, the “JAK 2 (pKi)” value at JAK2 is “A (A represents a pKi value ≥10 (Ki≤0.1 nM))”.
`COc1cc(Nc2cc(CO)[nH]n2)nc(N(C)[C@@H]2C[C@H]3CCC[C@@H](C2)N3S(=O)(=O)c2cncc(F)c2)n1` [Example 1-19, (3-((2-(((1R,3s,5S)-9-((5-fluoropyridin-3-yl)sulfonyl)-9-azabicyclo[3.3.1]nonan-3-yl)(methyl)amino)-6-methoxypyrimidin-4-yl)amino)-1H-pyrazol-5-yl)methanol]: in series [1], the “HT-29 (pIC50)” value is recorded as “A (A represents a pIC50 value ≥7.5 (IC50≤32 nM))”.
Turning to `COc1cc(Nc2cc(CO)[nH]n2)nc(N(C)[C@@H]2C[C@H]3CCC[C@@H](C2)N3S(C)(=O)=O)n1` [Example 3, (3-((6-methoxy-2-(methyl((1R,3s,5S)-9-(methylsulfonyl)-9-azabicyclo[3.3.1]nonan-3-yl)amino)pyrimidin-4-yl)amino)-1H-pyrazol-5-yl)methanol], the “absorption at the portal vein (Fa%)” value in series [2] is listed as “greater than 40%”.
Turning to `COc1cc(Nc2cc(CO)[nH]n2)nc(N(C)[C@@H]2C[C@H]3CCC[C@@H](C2)N3C(=O)C(F)F)n1` [Example 9, 2,2-difluoro-1-((1R,3s,5S)-3-((4-((5-(hydroxymethyl)-1H-pyrazol-3-yl)amino)-6-methoxypyrimidin-2-yl)(methyl)amino)-9-azabicyclo[3.3.1]nonan-9-yl)ethan-1-one], the IC50 in series [1] (Homo sapiens, read-out: HT-29 (pIC50) (converted)) is 31.6 to 200 nM.
For `COc1cc(Nc2cc(CO)[nH]n2)nc(N(C)[C@@H]2C[C@H]3CCC[C@@H](C2)N3S(=O)(=O)N2CC(C#N)C2)n1` [Form I, 1-(((1R,3s,5S)-3-((4-((5-(hydroxymethyl)-1H-pyrazol-3-yl)amino)-6-methoxypyrimidin-2-yl)(methyl)amino)-9-azabicyclo[3.3.1]nonan-9-yl)sulfonyl)azetidine-3-carbonitrile], in series [3], the hygroscopicity entry is given as “non-hygroscopic” and the “weight gain in the humidity range of 5% to 90% relative humidity” value (shortened to “weight gain … to 90% relative humidity”) is on record as “less than 0.4%”. The “weight gain … to 90% relative humidity” value in series [3] (listed as Crystalline 1-((1R,3s,5S)-3-((4-((5-(hydroxymethyl)-1H-pyrazol-3-yl)amino)-6-me)))) is given as “less than 0.4%”.
In the case of `COc1cc(Nc2cc(CO)[nH]n2)nc(N(C)[C@@H]2C[C@H]3CCC[C@@H](C2)N3S(=O)(=O)N2CC(C#N)C2)n1` [Form II, 1-(((1R,3s,5S)-3-((4-((5-(hydroxymethyl)-1H-pyrazol-3-yl)amino)-6-methoxypyrimidin-2-yl)(methyl)amino)-9-azabicyclo[3.3.1]nonan-9-yl)sulfonyl)azetidine-3-carbonitrile], in series [3], the hygroscopicity result was “slightly hygroscopic” and the “weight gain … to 90% relative humidity” value is reported as “about 1.2%”.
